Test results: patent EP1428520A2, “Lipase inhibitors in deodorants and antiperspirants” (Henkel Kommanditgesellschaft auf Aktien, priority 2002, dated 2004)

System: Lipase (Fa. Sigma) aus Pseudomonas species
Experiment: In vitro lipase inhibition test (Lipase Color Liquid assay, photometric release of methylresorufin)
Format: biochemical
Conditions: 37°C, pH 8.4, activity without inhibitor = 100%
Excerpt: Die hemmende Wirkung der Enzym-Inhibitoren wurde in vitro an einem geeigneten Modellenzym nachgewiesen. Da eine hautrelevante Lipase nicht zur Verfügung stand, diente die Lipase (Fa. Sigma) aus Pseudomonas species als Modellenzym, um die Hemmwirkung der erfindungsgemäß verwendeten Inhibitoren zu testen. Als Referenz diente Hinokitiol.
Der Nachweis der Lipase-Enzymaktivität erfolgt analog zu den Angaben im Lipase Color Liquid Autom ―Datenblatt der Fa. Sentinel. Hierbei wird die Lipase-katalysierte Spaltung von 1,2-O-dilauryl-rac-glycero-3-glutarsäure-(6'-methylresorufin)-ester in Glutarsäure und Methylresorufin bestimmt. Die Freisetzung des Methylresorufin verursacht eine Purpurfärbung (λ = 580 nm), deren Bildung photometrisch verfolgt wird. [drawing 4]
Der Assay wurde nach Herstellerangaben (37°C, Gesamtvolumen 1.21 ml) durchgeführt und enthielt: 37 mM Tris-Puffer (pH 8.4), 1,6 mM Desoxycholat, 6.6 mM Taurodesoxycholat, 0.9 mg/l Colipase, 1.5 mM Tartrat, 0.1 mM CaCl2 und 0.24 mM 1,2-O-dilauryl-rac-glycero-3-glutaric acid-(6'-methylresorufin)-ester (Substrat). Die Reaktion wurde mit 0.005 U Lipase (10 µl) gestartet und nach einer Inkubation von einer Minute die Zunahme der Absorption bei […] über 2 min verfolgt. Der lineare Anstieg der Absorption (A) pro Zeiteinheit (t) war hierbei ein Maß für die Aktivität des Enzyms (ΔA/Δt). Die Aktivität des Enzyms in Abwesenheit eines Inhibitors, (ΔA1/Δt1 ), wurde als Referenz gleich 100% gesetzt. Unter analogen Bedingungen wurden die Aktivitäten in Gegenwart eines Inhibitors (ΔA2/Δt2) bestimmt. Die Hemmwirkung des Inhibitors bzw. die Minderung der Enzymaktivität entspricht dann: 100% - (ΔA2/Δt2 )/( ΔA1/Δt1 )%.

- Hemmwirkung (Minderung der Lipase-Aktivität) (inhibitor concentration 0,01 % (v/v)): 29%
- Hemmwirkung (Minderung der Lipase-Aktivität) (inhibitor concentration 0,1 % (v/v)): 56%
- Hemmwirkung (Minderung der Lipase-Aktivität) (inhibitor concentration 1 % (v/v)): 85%
SMILES: CCCCCCCCCCCC(=O)NC(CCC(=O)O)C(=O)O (stereo not drawn) [Protelan AGL95PV, Natriumlauroylglutamat]
